Source: patent publication US6992079B2, “Substituted 11-phenyl-dibenzazepine compounds useful for the treatment or prevention of diseases characterized by abnormal cell proliferation” (President Fellows of Harvard College, priority 1997, dated 2006)
Like-named read-outs stand apart in the source and are kept apart here. Marks after values point to notes of the source that are not given here.

Columns and labels:
[1] = tested on: A2058 metastatic melanoma; experiment: Mouse xenograft tumor growth; format: in vivo, CD-1 nude mice
Protocol: NCI-A2058 human melanoma cell line was grown as monolayer culture in Minimum essential medium (D-MEM) supplemented with 10% fetal bovine serum (FBS), 0.1 mM non-essential amino acid, 1.0 mM sodium pyruvate, 100U/ml penicillin, 100 μg/ml streptomycin and 0.25 μg/ml amphotericin B and L-alanyl-1-glutamine (2 mM) at 37° C. in an atmosphere of 5% CO2 in air. The tumor cells were routinely subcultured twice weekly by trypsin-EDTA treatment. The cells were harvested from subconfluent logarithmically growing culture by treatment with typsin-EDTA and counted for tumor inoculation.
An acclimation period of at least 7 days were allowed between animal receipt and commence of tumor inoculation. When the female CD-1 nude mice were more than 6-7 weeks of age (20-25 g), each mouse was subcutaneously injected with 5.0×10^6 NCI-A2058 human melanoma cells in 0.1 ml of PBS solution at the right flank of the mice to induce tumor growth.

NCI-H226 = format: cell-based; settings: NCI-H226, 48 h
[2] = Preliminary toxicology, subcutaneous injection for 14 days; format: in vivo, CD-1 female mice; settings: CD-1 female mice; 80 mg/kg/day s.c. 14 days
Protocol: The toxicological effects of CLT, and compounds 28, 30 and 31 were tested in CD-1 female mice. A dose of 80 mg/kg/day was given to each mouse via subcutaneous injection for a period of 14 days. Preliminary toxicological data was determined by measuring body weight, gross pathology of organs blood chemistry and histology. The vehicle used was DMF 12%+2% Tween 20 88%.

OVCAR-3 = experiment: In-Vitro Testing SRB panel: Ovarian Cancer
COLO 205 = experiment: In-Vitro Testing SRB panel: Colon Cancer; format: cell-based; settings: COLO 205, 48 h
SF-539 = experiment: In-Vitro Testing SRB panel: CNS Cancer; format: cell-based; settings: SF-539, 48 h
SF-295 = experiment: In-Vitro Testing SRB panel: CNS Cancer; format: cell-based; settings: SF-295, 48 h
[3] = tested on: human melanoma MM-RU cells; experiment: Lung metastases in MM-RU tumor-bearing mice; format: in vivo, nude mice
NCI-H23 = format: cell-based; settings: NCI-H23, 48 h
[4] = Preliminary toxicity studies in mice and rats; format: in vivo
A498 = experiment: In-Vitro Testing SRB panel: Renal Cancer; format: cell-based; settings: A498, 48 h
U251 = experiment: In-Vitro Testing SRB panel: CNS Cancer; format: cell-based
[5] = tested on: PC-3 Human Prostate Tumor cells; experiment: XTT growth inhibition assay; format: cell-based; settings: PC-3 cells
MCF7 = experiment: SRB antiproliferative assay; format: cell-based; settings: Homo sapiens
Source text: (§1) The cells were passaged using Trypsin (Gibco).

U118MG = experiment: SRB antiproliferative assay; format: cell-based; settings: Homo sapiens, U-118-MG
Source text: as §1

A549 = experiment: SRB antiproliferative assay; format: cell-based; settings: Homo sapiens
Source text: as §1

HeLa = experiment: SRB antiproliferative assay; format: cell-based; settings: Homo sapiens, HeLa (Cervical), 5% FCS/5 day incubation
Source text: as §1

HEPG2 = experiment: SRB antiproliferative assay; format: cell-based; settings: Homo sapiens
Source text: as §1

HT29 = experiment: SRB antiproliferative assay; format: cell-based; settings: Homo sapiens
Source text: as §1

[6] = Homo sapiens, read-out: LC50 (the source's name)
[7] = MM-RU tumor-bearing mice, 80 mg/kg/d × 5/w × 3 s.c.
[8] = MM-RU tumor-bearing mice, 100 mg/kg/d × 28, p.o.
[9] = administered intraperitoneally, orally or subcutaneously

O=C(c1ccc([N+](=O)[O-])cc1)N1Cc2ccccc2C(c2ccccc2Cl)c2ccccc21 (centres unmarked) [Compound 28, N-(4′-Nitrobenzoyl)-11-(2′-chlorophenyl)-5,6-dihydro-11H-dibenz[b,e]azepine]
tumor growth [1]: significantly inhibited tumor growth | GI50 (NCI-H226; Homo sapiens): 7960 nM | CC50 (NCI-H226; [6]): > 100000 nM | TGI (NCI-H226): >1.00E−04 Molar | Percent Growth (NCI-H226; log10 conc −4.0 Molar): 33% | Percent Growth (NCI-H226; log10 conc −5.0 Molar): 48% | Percent Growth (NCI-H226; log10 conc −6.0 Molar): 66% | Percent Growth (NCI-H226; log10 conc −7.0 Molar): 83% | Percent Growth (NCI-H226; log10 conc −8.0 Molar): 90% | Body Weight Change [2]: 107% | Liver Weight [2]: 1.51 ± 0.08^c g | RBC [2]: 8.1 ± 0.6 10^6/mm^3 | WBC [2]: 7.5 ± 0.8 10^3/mm^3 | WBC, RBC, BUN and creatine levels [2]: no differences were found | GI50 (OVCAR-3; Homo sapiens, OVCAR-3, 48 h): 5250 nM | CC50 (OVCAR-3; Homo sapiens, OVCAR-3, 48 h, read-out: LC50): > 100000 nM | TGI (OVCAR-3; OVCAR-3, 48 h): >1.00E−04 Molar | Percent Growth (OVCAR-3; OVCAR-3, log10 conc −4.0 Molar, 48 h): 31% | Percent Growth (OVCAR-3; OVCAR-3, log10 conc −5.0 Molar, 48 h): 44% | Percent Growth (OVCAR-3; OVCAR-3, log10 conc −6.0 Molar, 48 h): 64% | Percent Growth (OVCAR-3; OVCAR-3, log10 conc −7.0 Molar, 48 h): 95% | Percent Growth (OVCAR-3; OVCAR-3, log10 conc −8.0 Molar, 48 h): 89% | TGI (COLO 205): 1.41E−05 Molar | Percent Growth (COLO 205; log10 conc −4.0 Molar): −60% | Percent Growth (COLO 205; log10 conc −5.0 Molar): 10% | Percent Growth (COLO 205; log10 conc −6.0 Molar): 40% | Percent Growth (COLO 205; log10 conc −7.0 Molar): 77% | Percent Growth (COLO 205; log10 conc −8.0 Molar): 79% | GI50 (COLO 205; Homo sapiens): 845 nM | CC50 (COLO 205; [6]): > 72500 nM | GI50 (SF-539; Homo sapiens): 25600 nM | CC50 (SF-539; [6]): > 100000 nM | TGI (SF-539): >1.00E−04 Molar | Percent Growth (SF-539; log10 conc −4.0 Molar): 35% | Percent Growth (SF-539; log10 conc −5.0 Molar): 61% | Percent Growth (SF-539; log10 conc −6.0 Molar): 86% | Percent Growth (SF-539; log10 conc −7.0 Molar): 107% | Percent Growth (SF-539; log10 conc −8.0 Molar): 82% | GI50 (SF-295; Homo sapiens): 442 nM | CC50 (SF-295; [6]): > 100000 nM | TGI (SF-295): >1.00E−04 Molar | Percent Growth (SF-295; log10 conc −4.0 Molar): 10% | Percent Growth (SF-295; log10 conc −5.0 Molar): 20% | Percent Growth (SF-295; log10 conc −6.0 Molar): 36% | Percent Growth (SF-295; log10 conc −7.0 Molar): 75% | Percent Growth (SF-295; log10 conc −8.0 Molar): 88% | Body Wt. Change [3, 7]: 107% | Liver Wt. [3, 7]: 0.97 ± 0.12 gram | Lung Metastases [3, 7]: 46 ± 12 | Body Wt. Change [3, 8]: 105% | Liver Wt. [3, 8]: 1.00 ± 0.09 gram | Lung Metastases [3, 8]: 45 ± 10 | Lung Metastases ([3]; nude mice, MM-RU cells, oral administration or subcutaneous injection): lung metastases were significantly reduced | GI50 (NCI-H23; Homo sapiens): 1610 nM | CC50 (NCI-H23; [6]): > 100000 nM | TGI (NCI-H23): >1.00E−04 Molar | Percent Growth (NCI-H23; log10 conc −4.0 Molar): 41% | Percent Growth (NCI-H23; log10 conc −5.0 Molar): 43% | Percent Growth (NCI-H23; log10 conc −6.0 Molar): 52% | Percent Growth (NCI-H23; log10 conc −7.0 Molar): 93% | Percent Growth (NCI-H23; log10 conc −8.0 Molar): 100% | body weight losses [4, 9]: did not cause significant body weight losses | gross observations of brain, heart, lungs, liver, spleen, kidney and gastrointestinal tract [4, 9]: no abnormalities were detected | systemic toxicity ([4]; mice and rats): no obvious systemic toxicity | TGI (A498): >1.00E−04 Molar | Percent Growth (A498; log10 conc −4.0 Molar): 15% | Percent Growth (A498; log10 conc −5.0 Molar): 57% | Percent Growth (A498; log10 conc −6.0 Molar): 81% | Percent Growth (A498; log10 conc −7.0 Molar): 93% | Percent Growth (A498; log10 conc −8.0 Molar): 97% | GI50 (A498; Homo sapiens): 14400 nM | CC50 (A498; [6]): > 100000 nM | GI50 (U251; Homo sapiens, U-251, 48 h): 476 nM | CC50 (U251; Homo sapiens, U-251, U251, 48 h, read-out: LC50 (the source's name)): > 100000 nM | TGI (U251; U251, 48 h): >1.00E−04 Molar | Percent Growth (U251; U251, log10 conc −4.0 Molar, 48 h): 8% | Percent Growth (U251; U251, log10 conc −5.0 Molar, 48 h): 9% | Percent Growth (U251; U251, log10 conc −6.0 Molar, 48 h): 28% | Percent Growth (U251; U251, log10 conc −7.0 Molar, 48 h): 94% | Percent Growth (U251; U251, log10 conc −8.0 Molar, 48 h): 104% | PC-3 prostate cancer cell growth (XTT) [5]: inhibits PC-3 prostate cancer cell growth | IC50 (MCF7; MCF7, MCF7 (Breast), 5% FCS/5 day incubation): 600 nM | IC50 (MCF7; MCF7, MCF7, 5% FCS/3 days): 2100 nM | IC50 (U118MG; U118MG (CNS), 5% FCS/5 day incubation): 500 nM | IC50 (U118MG; U118MG, 5% FCS/3 days): 1300 nM | IC50 (A549; A549, A549 (Lung), 5% FCS/5 day incubation): 800 nM | IC50 (A549; A549, A549, 5% FCS/3 days): 1800 nM | IC50 (HeLa): 300 nM | IC50 (HEPG2; HepG2, HEPG2 (Hepatocel), 5% FCS/5 day incubation): 300 nM | IC50 (HEPG2; HepG2, HEPG2, 5% FCS/3 days): < 1250 nM | IC50 (HT29; HT-29, HT29 (Colon), 5% FCS/5 day incubation): 300 nM | IC50 (HT29; HT-29, HT29, 5% FCS/3 days): < 1250 nM
